Test results as given in the RepoRT retention time repository.
Structures can show the parent of a compound that is named as a salt.

test: RP, Waters ACQUITY Premier BEH C18, 100 × 2.1 mm, 1.7 µm, 40 °C, 0.3 to 0.4 mL/min, estimated dead time 0.73 min; A: water + 0.1% formic acid; B: acetonitrile + 0.1% formic acid; gradient (min/%B) 0/0.5 0.1/0.5 10/80 10.1/99.5 12/0.5 12.1/0.5 14.5/0.5; conditions: stereoisomer not certain

SMILES | LC retention time [min]
O=C(OC1Cc2c(O)cc(O)cc2OC1c1cc(O)c(O)c(O)c1)c1cc(O)c(O)c(O)c1 (single isomer, unassigned; (-)) [(-)-EPIGALLOCATECHIN-3-GALLATE] | 3.98
O=c1cc(CO)occ1O [KOJIC ACID] | 1.17
O=C(O)CP(=O)(O)O [PHOSPHONOACETATE] | 0.959
O=CCc1c[nH]c2ccccc12 [INDOLEACETALDEHYDE] | 6.28
COc1cc(C(=O)O)ccc1O [VANILLIC ACID] | 3.91
O=C(O)c1cc(O)c2c(c1)C(=O)c1cccc(O)c1C2=O [RHEIN] | 7.07
O=c1cc[nH]c(=O)[nH]1 [URACIL] | 1.39
O=C(O)CCCCCCCC(=O)O [AZELATE] | 5.52
O=C(O)Cc1ccccc1O [ORTHO-HYDROXYPHENYLACETIC ACID] | 4.97
Cc1c(O)cc2c(c1C)OC(C)(CCC(=O)O)CC2 (stereo unspecified) [GAMMA-CEHC] | 6.69
OCC1OC(OC2C(CO)OC(OC3C(CO)OC(OC4C(CO)OC(O)C(O)C4O)C(O)C3O)C(O)C2O)C(O)C(O)C1O (stereo unspecified) [MALTOTETRAOSE] | 1.07
O=c1cc(-c2ccccc2)oc2ccccc12 [FLAVONE] | 7.23
Cc1ccc(OS(=O)(=O)O)cc1 [P-CRESOL SULFATE] | 4.57
Cc1cc(C(=O)O)ccc1O [4-HYDROXY-3-METHYLBENZOIC ACID] | 4.47
CC(CC(=O)O)CC(=O)O [METHYGLUTARATE] | 4.05
CC(CCC(=O)O)C1CCC2C3C(O)C(O)C4CC(O)CCC4(C)C3CCC12C (stereo unspecified) [HYOCHOLIC ACID] | 6.98
Cc1cc(O)c2c(c1)C(=O)c1cc(O)cc(O)c1C2=O [EMODIN] | 7.52
NCCc1cc(O)c(O)cc1O [6-HYDROXYDOPAMINE] | 1.31
O=C1CCNC(=O)N1 [DIHYDROURACIL] | 1.37
CC1(C(=O)O)CCC2(C)CCC3(C)C(=CC(=O)C4C5(C)CCC(O)C(C)(C)C5CCC43C)C2C1 (stereo unspecified) [GLYCYRRHETINIC ACID] | 8.08
CC(C)CC1NC(=O)C2CCCN2C1=O [L,L-CYCLO(LEUCYLPROLYL)] | 4.92
CC(CCC(=O)O)C1CCC2C3CCC4CC(O)CCC4(C)C3CCC12C (stereo unspecified) [LITHOCHOLATE] | 8.27
O=C(O)Cc1cc(O)ccc1O [HOMOGENTISATE] | 3.66

SMILES | LC retention time [min]
CCCCCC=CCC=CCCCCCCCC(=O)O [LINOLEATE] | 7.75
CCCCCCCCCCCCCC(O)CC(=O)O (stereo unspecified) [3-HYDROXYHEXADECANOIC ACID] | 8.7
COc1cccc(OC)c1C(=O)O [2,6-DIMETHOXYBENZOIC ACID] | 4.71
O=C(O)C(O)CCO (stereo unspecified) [2,4-DIHYDROXYBUTANOIC ACID] | 1.07
CC(=O)NC(CO)C(=O)O (stereo unspecified) [N-ACETYLSERINE] | 1.12
O=C(OCC1=CC(O)C2C=COC(OC3OC(CO)C(O)C(O)C3O)C12)c1ccc(O)cc1 (stereo unspecified) [AGNUSIDE] | 4.2
O=C(O)c1cc(=O)c2ccccc2[nH]1 [KYNURENATE] | 4.18
O=c1cc(-c2ccc(O)c(O)c2)oc2cc(O)cc(O)c12 [LUTEOLIN] | 5.54
COc1cc(C2Oc3cc(C4Oc5cc(O)cc(O)c5C(=O)C4O)ccc3OC2CO)ccc1O (stereo unspecified) [SILIBININ] | 5.88
O=C(O)CC(=O)O [MALONATE] | 1.21
COc1cc(CNC(=O)CCCCC=CC(C)C)ccc1O [CAPSAICIN] | 7.3
NC(Cc1cc(I)c(Oc2ccc(O)c(I)c2)c(I)c1)C(=O)O (stereo unspecified) [LIOTHYRONINE] | 6.23
O=C(O)Cc1cnc[nH]1 [4-IMIDAZOLEACETATE] | 0.92
O=C(O)C1CCCN1 (stereo unspecified) [PROLINE] | 0.916
C=CCSCC(N)C(=O)O (stereo unspecified) [S-ALLYLCYSTEINE] | 1.22
O=c1c(O)c(-c2ccc(O)cc2O)oc2cc(O)cc(O)c12 [MORIN] | 5.82
NC(=O)c1ccccc1O [SALICYLAMIDE] | 5.04
O=c1cc[nH]c2c(O)cccc12 [QUINOLINE-4,8-DIOL] | 4.14
O=CNC(Cc1ccccc1)C(=O)O (stereo unspecified) [N-FORMYLPHENYLALANINE] | 4.77
O=C(O)CNC(=O)CCc1ccccc1 [PHENYLPROPIONYLGLYCINE] | 4.84
Nc1nc2[nH]c(=O)cnc2c(=O)[nH]1 [ISOXANTHOPTERIN] | 1.02
O=C(O)CC1C(=O)Nc2ccccc21 (stereo unspecified) [3-OXINDOLE-3-ACETATE] | 4.29
O=C(O)c1c(O)cc(O)cc1O [2,4,6-TRIHYDROXYBENZOIC ACID] | 3.9

SMILES | LC retention time [min]
CC(C(=O)O)C(O)(CC(=O)O)C(=O)O (stereo unspecified) [2-METHYLCITRATE] | 3.44
CC(=O)NCCc1c[nH]c2ccc(O)cc12 [N-ACETYLSEROTONIN] | 4.42
Oc1ccccc1O [PYROCATECHOL] | 3.85
O=C(C=Cc1ccc(O)c(O)c1)OC1CC(O)(C(=O)O)CC(O)C1OC(=O)C=Cc1ccc(O)c(O)c1 (stereo unspecified) [4,5-DI-O-CAFFEOYLQUINIC ACID] | 4.78
C[C@H](O)[C@@H](O)[C@H](O)[C@H](O)CO [1-DEOXY-D-GLUCITOL] | 0.959
CS(=O)CCCN=C=S (stereo unspecified) [3-METHYLSULFINYLPROPYL ISOTHIOCYANATE] | 4.1
Cn1c(=O)c2[nH]cnc2n(C)c1=O [THEOPHYLLINE] | 3.96
O=c1ccc2ccc3occc3c2o1 [ANGELICIN] | 6.41
CCCCCC1CCCC(=O)O1 (stereo unspecified) [DELTA-DECALACTONE] | 7.1
CC(=O)Oc1cccc(O)c1 [RESORCINOL MONOACETATE] | 5.71
O=C(O)c1ccc[nH]1 [PYRROLE-2-CARBOXYLATE] | 4.38
O=c1ccn(C2CC(O)C(COP(=O)(O)O)O2)c(=O)[nH]1 (stereo unspecified) [DEOXYURIDINE-MONOPHOSPHATE] | 1.7
CC(O)CCCC(=O)O (stereo unspecified) [5-HYDROXYHEXANOIC ACID] | 3.96
CCCC(=O)OC(CC(=O)[O-])C[N+](C)(C)C (stereo unspecified) [BUTYRYLCARNITINE] | 3.89
O=C(O)CCCCCCCCCC(=O)O [UNDECANEDIOIC ACID] | 6.09
N[C@@H](Cc1cc(I)c(O)c(I)c1)C(=O)O [3,5-DIIODO-L-TYROSINE] | 4.59
OCC1OC(Oc2ccc(O)cc2)C(O)C(O)C1O (stereo unspecified) [ARBUTIN] | 1.12
O=C(O)c1cc(O)c(O)c(O)c1 [GALLIC ACID] | 1.34
O=C(O)c1ccc(O)cc1O [2,4-DIHYDROXYBENZOIC ACID] | 4
O=C(O)C(=O)Cc1ccccc1 [PHENYLPYRUVATE] | 5.38
CC(=O)OC1CC2CCC1(C)C2(C)C (single isomer, unassigned; (-)) [(-)-BORNYL ACETATE] | 7.47
CC(C=CC1=C(C)CCCC1(C)C)=CC=CC(C)=CC(=O)O [RETINOATE] | 9.05
CC(C)(COP(=O)(O)OP(=O)(O)OCC1OC(n2cnc3c(N)ncnc32)C(O)C1O)C(O)C(=O)NCCC(=O)NCCS (stereo unspecified) [DEPHOSPHO-COA] | 3.69

SMILES | LC retention time [min]
O=C([O-])C(O)Cc1ccc(O)c(O)c1.[Na+] (stereo unspecified) [3-(3,4-DIHYDROXYPHENYL)LACTIC ACID] | 3.74
CC1OC(n2cnc3c(N)ncnc32)C(O)C1O (stereo unspecified) [5'-DEOXYADENOSINE] | 3.5
O=C(O)C1OC(Oc2c(-c3ccc(O)c(O)c3)oc3cc(O)cc(O)c3c2=O)C(O)C(O)C1O (stereo unspecified) [QUERCETIN 3-O-GLUCURONIDE] | 4.41
COc1ccc(-c2coc3cc(O)cc(O)c3c2=O)cc1 [BIOCHANIN A] | 7.15
CCC=CCC1C(=O)CCC1CC(=O)OC (stereo unspecified) [METHYL JASMONATE] | 7.43
CC(CC(=O)CC(C)C1CC(O)C2(C)C3=C(C(=O)CC12C)C1(C)CCC(=O)C(C)(C)C1CC3O)C(=O)O (stereo unspecified) [GANODERIC ACID A] | 6.82
Cc1ccc(C(C)C)c(O)c1 [THYMOL] | 5.78
CCCCCCCCCCCCCCC(O)C(=O)O (stereo unspecified) [2-HYDROXYHEXADECANOIC ACID] | 8.98
Cc1c[nH]c(=O)[nH]c1=O [THYMINE] | 2.99
CCCCCCC[C@@H](O)CC(=O)O [(R)-3-HYDROXYDECANOIC ACID] | 7.09
COc1cc2c(c(O)c1C(=O)C=Cc1ccc(O)cc1)C(O)CC(C)(C)O2 (stereo unspecified) [ISOXANTHOHUMOL B] | 6.64
O=c1c(O)c(-c2ccccc2)oc2cc(O)cc(O)c12 [NORIZALPININ] | 7.12
CCCCCCC=CCCCCCCCC(=O)O [PALMITOLEIC ACID] | 8.15
O=C(OC1OC2COC(=O)c3cc(O)c(O)c(O)c3-c3c(cc(O)c(O)c3O)C(=O)OC(C2O)C1O)c1cc(O)c(O)c(O)c1 (stereo unspecified) [CORILAGIN] | 4.37
CSCC[C@H](NC=O)C(=O)O [N-FORMYL-L-METHIONINE] | 4.06
CC(=O)NC(Cc1ccccc1)C(=O)O (stereo unspecified) [N-ACETYLPHENYLALANINE] | 5.18
CC(=O)NCCc1cnc[nH]1 [N-ACETYLHISTAMINE] | 0.998
NCc1[nH]cc(CCC(=O)O)c1CC(=O)O [PORPHOBILINOGEN] | 3.51
O=c1[nH]c(=O)c2[nH]cnc2[nH]1 [XANTHINE] | 2.11
CC(CCC(=O)NCC(=O)O)C1CCC2C3CCC4CC(O)CCC4(C)C3CC(O)C12C (stereo unspecified) [DEOXYCHOLIC ACID GLYCINE CONJUGATE] | 7.24
Nc1nc2c(ncn2C2OC3COP(=O)(O)OC3C2O)c(=O)[nH]1 (stereo unspecified) [CYCLIC GMP] | 3.35
C=C(C)C1Cc2c(ccc3c2OC2COc4cc(OC)c(OC)cc4C2C3=O)O1 (stereo unspecified) [ROTENONE] | 7.55
